# In patent publication US20250177566A1, “USE OF CHEMICAL EPIGENETIC MODIFIERS TO MODULATE GENE EXPRESSION” (The University of North Carolina at Chapel Hill, priority 2022, published 2025):
# Key:
# Format in all cases: cell-based, human
# [1] = test system: AAV transgene expression (firefly luciferase); test: AAV regulation with first generation CEM, dual luciferase assay, HCT116 Renilla; details: FIG. 12, 50, 200, 500, 1000 nM
# Text: (§1) It was investigated whether rAAV transgene expression can be epigenetically controlled. Rapid screening of CEM technology can be performed with dual liucierase assays. (FIG. 10). Briefly, a cell line can be stably transduced with Ef1a-Renilla, enabling normalization to cell number. The cells are then either infected with AAV or tranfected with plasmid and dosed with a chemical epigenetic modifier. Luminescence can then be measured with the Dual Lucieferase Reporter, commercially available from Promega. This approach is described in more detail in the methods section of the example. Gene activation can be described as normalized luciferase or fold change. A measure of total gene expression can be calculated by
# Preliminary regulation of AAV with first generation CEMs is depicted in FIG. 11A. The prototype system is autogenous, saving casssette space. (FIG. 11B). […] Preliminary regulation of AAV with first generation CEMs in HEK293T Renilla cells using the cassette in FIG. 11B results are shown in FIG. 13, with multiplicity of infection (MOI)=number of viral genomes/cell.
# [2] = test system: rAAV2 transgene expression (firefly luciferase); test: rAAV2 SLF* CEM system dual luciferase assay, HEK293T Renilla, multiplicity of infection; details: FIGS. 14B and 14C; 0, 10 or 100 nM CEM207; increasing vg/cell
# Text: as §1
# Next, it was determined whether SLF*CEMs can regulate AAV. The cassette shown in FIG. 14A was inserted into rAAV2 and infected into HEK293T Renilla. […] Next, it was explored whether the cassette was truly modular by varying the promoter while retaining SLF* CEM successful activation of rAAV2. […]
# Day 4 (72 h): Data was obtained using the Promega Dula Luciferase Reporter (DLR) assay: first, the cells were washed with 100 μL of PBS/well dropwise followed by 20 μL of 1× passive lysis buffer (PLB) added to each well. The cells were incubated for 15 minutes in PLB and the assay ran on pheraSTAR microplate reader with 100 μL of each DLR reagent, gain=3600.
# HCT116 cells = test: alamarBlue cell viability assay, HCT116
# Experimental: FIGS. 8A-8B show alamarBlue cell viability assays. HEK293T or HCT116 cells were plated in 96-well plates 24 hrs before chemical treatment of 0.001, 0.01, 0.1, 1, 10, 50, and 100 μM CEM207 was added. Another group of cells were treated with all concentrations of CEM207 mentioned above along with 200 nM CEM87 in all samples. After 4 days of chemical exposure, cell growth was measured by fluorescence. […] HCT116 cells were stably infected with dCas9 and MS2-FKBP*x2 constructs and transfected with CXCR4 gRNA. After 24 hrs of 25 nM CEM207 treatment, ChIP-qPCR was performed at different base pair distances from the transcription start site of CXCR4 gene. […] Error bars represent the standard deviation.
# AlamarBlue cell viability assay. HEK293T or HCT116 cells were placed in black 96-well plates with clear bottom. 24 hrs later, media was exchanged to include 0.001, 0.01, 0.1, 1, 10, 50, 100 μM concentrations of CEM207, or all CEM207 concentrations above along with 200 nM CEM87. After 4 days of chemical exposure, alamarBlue Cell Viability Reagent (Invitrogen, DAL1025) was added to each well. Cells were incubated at 37° C. for 4 hrs and fluorescence was read using the TECAN Infinite F200 Fluorescence Microplate Reader. IC50 values were calculated using GraphPad Prism 9.
SMILES,"luminescence, fold change compared to no treatment [1]",activation of rAAV2 luciferase expression with viral titer escalation [2],"IC50 (HCT116 cells; CEM207 alone, 4 days of exposure)","IC50 (HCT116 cells; CEM207 in the background of 200 nM CEM87, 4 days of exposure)"
"COc1ccc2c(c1)C(c1ccc(Cl)cc1)=N[C@@H](CC(=O)NCc1cn(CCOCCOCCOCCNC(=O)CCSCCC[C@@H]3/C=C(\C)C[C@H](C)C[C@H](OC)[C@H]4O[C@@](O)(C(=O)C(=O)N5CCCC[C@H]5C(=O)O[C@H](/C(C)=C/[C@@H]5CC[C@@H](O)[C@H](OC)C5)[C@H](C)[C@@H](O)CC3=O)[C@H](C)C[C@@H]4OC)nn1)c1nnc(C)n1-2 [CEM87, reference compound]",dose dependent increase in luminscence,,,
"CC[C@H](C(=O)N1CCCC[C@H]1C(=O)O[C@H](CCc1ccc(OC)c(OC)c1)c1cccc(OCC(=O)NCCOCCOCCNC(=O)C[C@@H]2N=C(c3ccc(Cl)cc3)c3c(sc(C)c3C)-n3c(C)nnc32)c1)c1cc(OC)c(OC)c(OC)c1 [CEM207, (R)-1-(3-((14-((S)-4-(4-Chlorophenyl)-2,3,9-trimethyl-6H-thieno[3,2-f][1,2,4]triazolo[4,3-a][1,4]diazepin-6-yl)-2,13-dioxo-6,9-dioxa-3,12-diazatetradecyl)oxy)phenyl)-3-(3,4-dimethoxyphenyl) propyl(S)-1-((S)-2-(3,4,5-trimethoxyphenyl)butanoyl) piperidine-2-carboxylate]",,compatible with viral titer escalation,870 nM,359 nM
